The text below walks through data of article PMC5077133, “Towards Development of Small Molecule Lipid II Inhibitors as Novel Antibiotics” (PLoS ONE, 2016).

The test system of one data set is P. aeruginosa ATCC 27853. As to the kind of experiment: Antibacterial activity (MIC, broth dilution). Type of data set: cell-based. As to conditions: CLSI. Here is the method:
(§1) Determination of the Minimal Inhibitory Concentrations (MIC) by dilution was carried out by broth dilution according to CLSI standards.

In data set [1] the test system is K. pneumoniae NR-15410 (KPC). Put plainly: Antibacterial activity (MIC, broth dilution). Type of data set: cell-based. The conditions noted are these: CLSI. On the procedure:
as §1

Another data set relates to E. faecium F118 (VRE). Put plainly: Antibacterial activity (MIC, broth dilution). In kind it is cell-based. As to conditions: CLSI, in µg/mL. Here is the method:
as §1
Background: Broth dilution looks for growth in wells or tubes with falling amounts of substance.

In data set [2] the test system is K. pneumoniae NR-15411 (KPC). As to the kind of experiment: Antibacterial activity (MIC, broth dilution). In kind it is cell-based. The conditions noted are these: CLSI. Here is the method:
as §1

The test system of the next data set is P. aeruginosa PA01. As to the kind of experiment: Antibacterial activity (MIC, broth dilution). Type of data set: cell-based. The conditions noted are these: CLSI. Here is the method: as §1
Another data set has as its system E. aerogenes ATCC 13048. As to the kind of experiment: Antibacterial activity (MIC, broth dilution). In kind it is cell-based. The conditions noted are these: CLSI. Here is the method: as §1
The next data set deals with E. faecium EF1509 (VRE). Put plainly: Antibacterial activity (MIC, broth dilution). In kind it is cell-based. The conditions noted are these: CLSI, in µg/mL. Here is the method:
as §1

The test system of a further data set is P. aeruginosa X13273. Put plainly: Antibacterial activity (MIC, broth dilution). Type of data set: cell-based. The conditions noted are these: CLSI, in µg/mL. Here is the method:
as §1

For the next data set, the system named is S. aureus MRSA 1094. As to the kind of experiment: Antibacterial activity (MIC, broth dilution). Type of data set: cell-based. As to conditions: CLSI. On the procedure: as §1
Data set [3] deals with S. aureus HFH-30123 (MRSA). As to the kind of experiment: Antibacterial activity (MIC, broth dilution). In kind it is cell-based. The conditions noted are these: CLSI. Here is the method: as §1
The test system of a further data set is E. cloacae ATCC 13047. Put plainly: Antibacterial activity (MIC, broth dilution). The conditions noted are these: CLSI. Type of data set: cell-based. On the procedure:
as §1

The next data set relates to HeLa cells. As to the kind of experiment: Cytotoxicity against mammalian cells (MTS assay). In kind it is cell-based. On the procedure: The cytotoxicity concentration of antibacterial compounds that produces half maximal decrease in viability (CC50) against mammalian cells (HeLa, ATCC CCL-2.2) was determined as described. The effect of compounds on HeLa cell viability was assessed in triplicate by measuring the mitochondrial activity using MTS assays according to the manufacturer’s instructions (Cell Titer 96 proliferation assay, Promega). The cells were incubated for 72 hours in RPMI1640 medium containing the compounds at final concentrations ranging from 64 to 0.125 μg/ml. CC50 was determined using a standard curve of serially diluted untreated cells in each experiment.
For orientation: Tetrazolium dyes change colour on reduction, which living cells bring about.

A short description of data set [4]: Lipid II binding by Surface Plasmon Resonance. The conditions noted are these: SPR, immobilized 3-Lipid II, 25°C. On the procedure: Short-chain water-soluble Lipid II containing a lipid tail of three isoprene units was generated and purified essentially as described. Typically, M. flavus vesicles (120 μmol lipid-Pi) were incubated together with 500 μmol UDP-GlcNAc, 500 μmol UDP-MurNAC-pentapeptide and 400 μmol farnesyl phosphate in 100 mM Tris-HCl pH 8.0, 5 mM MgCl2. The incubation lasted two hours at room temperature for 3-P. The synthesis of 3-Lipid II was followed using RP-8 reversed phase TLC (Merck) developed in 75% methanol. For purification, the membranes were removed by centrifugation at 40,000 x g and the supernatant was collected and loaded on a C18 HPLC column and eluted with a linear gradient from 50 mM ammonium bicarbonate to 100% methanol in 30 minutes. Farnesyl-Lipid II (3-Lipid II) eluted at approximately 60% methanol. Its identity was confirmed by mass spectroscopy. Surface Plasmon Resonance binding experiments were carried out on a BIAcore T100 system (BIAcore Inc., Piscataway, NY) at 25°C. The assay buffer was 10 mM HEPES, 150 mM NaCl, 0.05% surfactant P20, pH 7.4 (± 3 mM EDTA) supplemented with 10% DMSO. 3-Lipid II (50 RUs) was immobilized on CM5 sensor chips using the amine-coupling chemistry recommended by the manufacturer. For initial determination of binding, compounds were introduced into the flow-cells (30 μl/min) in the running buffer at 10 μM. Resonance signals were corrected for nonspecific binding by subtracting the background of the control flow-cell. After each analysis, the sensor chip surfaces were regenerated with 50 mM NaOH for 30 s at a flow rate 100 μl/min, and equilibrated with the buffer prior to next injection. For binding kinetics studies, binding isotherms were analyzed with manufacturer-supplied software for BIAcore T100.

The test system of a further data set is A. baumanii ATCC 19606. As to the kind of experiment: Antibacterial activity (MIC, broth dilution). In kind it is cell-based, Acinetobacter baumanii. As to conditions: CLSI, in µg/mL.
Excerpt: Staphylococcus aureus ATCC 29213, Escherichia coli ATCC 25922, Enterococcus faecalis ATCC 29212, Streptococcus pneumonia ATCC 49619 and Acinetobacter baumanii ATCC 19606 were obtained from Microbiologics (St. Cloud, MN). E. faecalis ATCC 51575, ATCC 51299 and REMEL C99707 and E. faecium ATCC 51559 (MDR), REMEL IH79985 and REMEL C110914 were generously provided by the Laboratory of Pathology, University of Maryland Baltimore School of Medicine. Unless stated otherwise, chemicals and reagents were purchased from Sigma.
as §1

In general, Kd refers to the concentration at which binding is half-saturated. Higher therefore signals lower affinity. In turn, `CCc1ccc(-c2cc(/C=C/c3cc4c5c(c3)CCCN5CCC4)[o+]c(-c3ccc(CC)cc3)c2)cc1.F[B-](F)(F)F` [6jc-69-1] showed an Antibacterial activity (MIC) P. aeruginosa ATCC 27853 in the data set on P. aeruginosa ATCC 27853 not below 64 µg/mL. In data set [1], this molecule had an Antibacterial activity (MIC) K. pneumoniae NR-15410 (KPC) not below 64 µg/mL. Moreover, in the data set with E. faecium F118 (VRE), the “Antibacterial activity (MIC) E. faecium F118 (VRE)” value came to 2. For the same molecule, the Antibacterial activity (MIC) K. pneumoniae NR-15411 (KPC) in [2] was not below 64 µg/mL. Further, the Antibacterial activity (MIC) P. aeruginosa PA01 with P. aeruginosa PA01 was not below 64 µg/mL. This molecule also registered an Antibacterial activity (MIC) E. aerogenes ATCC 13048 in the data set with E. aerogenes ATCC 13048 not below 64 µg/mL. For the same molecule, in the data set with E. faecium EF1509 (VRE), the “Antibacterial activity (MIC) E. faecium EF1509 (VRE)” value is reported as 2. For the same molecule, the “Antibacterial activity (MIC) P. aeruginosa X13273” value with P. aeruginosa X13273 is “>=64”. In the data set with S. aureus MRSA 1094, this molecule returned an Antibacterial activity (MIC) S. aureus MRSA 1094 of 2 µg/mL. The molecule also had an Antibacterial activity (MIC) S. aureus HFH-30123 (MRSA) in data set [3] of 2 µg/mL. In the data set with E. cloacae ATCC 13047, this molecule had an Antibacterial activity (MIC) E. cloacae ATCC 13047 not below 64 µg/mL. The “CC50% (72 h HeLa cells)” value in the data set on HeLa cells is given as “<.78125”. Further, in [4], the Kd was determined as 16.1 ± 0.3 µM. The “Antibacterial activity (MIC) A. baumanii ATCC 19606” value in the data set on A. baumanii ATCC 19606 was 32.

Molecule `Cc1ccc(-c2cc(/C=C/c3cn(C)c4ccccc34)[o+]c(-c3ccc(C)cc3)c2)cc1.F[B-](F)(F)F` [6jc65-2] had an Antibacterial activity (MIC) P. aeruginosa ATCC 27853 in the data set on P. aeruginosa ATCC 27853 not below 64 µg/mL. The molecule further came in with an Antibacterial activity (MIC) K. pneumoniae NR-15410 (KPC) in [1] of 64 µg/mL. The “Antibacterial activity (MIC) E. faecium F118 (VRE)” value in the data set on E. faecium F118 (VRE) is on record as 4. Also, in [2], the Antibacterial activity (MIC) K. pneumoniae NR-15411 (KPC) was not below 64 µg/mL. Moreover, the Antibacterial activity (MIC) P. aeruginosa PA01 with P. aeruginosa PA01 was not below 64 µg/mL. The Antibacterial activity (MIC) E. aerogenes ATCC 13048 with E. aerogenes ATCC 13048 was 64 µg/mL. Also, the “Antibacterial activity (MIC) E. faecium EF1509 (VRE)” value in the data set on E. faecium EF1509 (VRE) was 2. The “Antibacterial activity (MIC) P. aeruginosa X13273” value in the data set with P. aeruginosa X13273 is recorded as “>=64”. The same molecule came in with an Antibacterial activity (MIC) S. aureus MRSA 1094 in the data set on S. aureus MRSA 1094 of 2 µg/mL. The Antibacterial activity (MIC) S. aureus HFH-30123 (MRSA) in [3] came out at 2 µg/mL. For the same molecule, the Antibacterial activity (MIC) E. cloacae ATCC 13047 in the data set with E. cloacae ATCC 13047 amounted to 64 µg/mL. Further, the “CC50% (72 h HeLa cells)” value with HeLa cells is on record as 0.94. In data set [4], the Kd is 3.9 ± 0.4 µM. Also, the “Antibacterial activity (MIC) A. baumanii ATCC 19606” value in the data set on A. baumanii ATCC 19606 stood at 32.

Molecule `CCc1ccc(-c2cc(/C=C/c3ccc(N(C)C)cc3)[o+]c(-c3ccc(CC)cc3)c2)cc1.F[B-](F)(F)F` [6jc64-1] showed an Antibacterial activity (MIC) P. aeruginosa ATCC 27853 in the data set with P. aeruginosa ATCC 27853 not below 64 µg/mL. Further, the Antibacterial activity (MIC) K. pneumoniae NR-15410 (KPC) in data set [1] was not below 64 µg/mL. The “Antibacterial activity (MIC) E. faecium F118 (VRE)” value with E. faecium F118 (VRE) turned out to be 5.66. In addition, in [2], the Antibacterial activity (MIC) K. pneumoniae NR-15411 (KPC) is not below 64 µg/mL. The molecule further registered an Antibacterial activity (MIC) P. aeruginosa PA01 in the data set on P. aeruginosa PA01 not below 64 µg/mL. This molecule displayed an Antibacterial activity (MIC) E. aerogenes ATCC 13048 in the data set on E. aerogenes ATCC 13048 not below 64 µg/mL. Also, in the data set with E. faecium EF1509 (VRE), the “Antibacterial activity (MIC) E. faecium EF1509 (VRE)” value came out at 4. In addition, in the data set on P. aeruginosa X13273, the “Antibacterial activity (MIC) P. aeruginosa X13273” value was “>=64”. The molecule further came in with an Antibacterial activity (MIC) S. aureus MRSA 1094 in the data set with S. aureus MRSA 1094 of 4 µg/mL. The Antibacterial activity (MIC) S. aureus HFH-30123 (MRSA) in [3] is 4 µg/mL. This molecule also came in with an Antibacterial activity (MIC) E. cloacae ATCC 13047 in the data set with E. cloacae ATCC 13047 not below 64 µg/mL. Also, in the data set on HeLa cells, the “CC50% (72 h HeLa cells)” value was “<.78125”. In addition, the “Antibacterial activity (MIC) A. baumanii ATCC 19606” value in the data set with A. baumanii ATCC 19606 was found to be 16.

Consider `Cc1ccc(-c2cc(/C=C/c3ccc(N(C)C)cc3)[o+]c(-c3ccc(C)cc3)c2)cc1.F[B-](F)(F)F` [6jc51-1], for which the Antibacterial activity (MIC) K. pneumoniae NR-15410 (KPC) in [1] was 16 µg/mL. The “Antibacterial activity (MIC) E. faecium F118 (VRE)” value in the data set with E. faecium F118 (VRE) came to 2. In data set [2], this molecule showed an Antibacterial activity (MIC) K. pneumoniae NR-15411 (KPC) of 64 µg/mL. In the data set on P. aeruginosa PA01, this molecule yielded an Antibacterial activity (MIC) P. aeruginosa PA01 of 64 µg/mL. Further, the Antibacterial activity (MIC) E. aerogenes ATCC 13048 in the data set on E. aerogenes ATCC 13048 came to 64 µg/mL. In the data set with E. faecium EF1509 (VRE), the “Antibacterial activity (MIC) E. faecium EF1509 (VRE)” value was 0.5. Further, the “Antibacterial activity (MIC) P. aeruginosa X13273” value with P. aeruginosa X13273 stood at 45.25. For the same molecule, in the data set on S. aureus MRSA 1094, the Antibacterial activity (MIC) S. aureus MRSA 1094 is 1 µg/mL. For the same molecule, the Antibacterial activity (MIC) S. aureus HFH-30123 (MRSA) in data set [3] turned out to be 2 µg/mL. In addition, in the data set on E. cloacae ATCC 13047, the Antibacterial activity (MIC) E. cloacae ATCC 13047 was found to be 64 µg/mL. Further, in the data set on HeLa cells, the “CC50% (72 h HeLa cells)” value is “<.78125”. Further, in data set [4], binding was characterised by a dissociation constant (Kd) of 9.2 ± 2 µM. The “Antibacterial activity (MIC) A. baumanii ATCC 19606” value with A. baumanii ATCC 19606 is given as 8.
